Where “and” joins values, the source holds several entries; their conditions need not be identical. Equal values may be shown once. Read-outs that look alike come from different tables or passages of the source.
What was measured:
[1] = test system: p53 signaling (p53RE-bla HCT-116 cells); assay: cells; format: cell-based; design: efficacy: unit not given here
[2] = test system: p53 signaling (p53RE-bla HCT-116 cells); assay: cells; format: cell-based
[3] = test system: p53 signaling (p53RE-bla HCT-116 cells)
[4] = test system: p53 signaling (p53RE-bla HCT-116 cells); assay: cells; format: cell-based; remark: listed apart in the source
[5] = test system: p53 signaling (p53RE-bla HCT-116 cells); remark: listed apart in the source
[6] = rat, microsomes, pH 7.4
[7] = test system: p53 signaling (p53RE-bla HCT-116 cells); assay: cells; conditions: Homo sapiens
[8] = rat
[9] = test system: p53 signaling (p53RE-bla HCT-116 cells); assay: cells; conditions: Homo sapiens; remark: listed apart in the source
in vitro = conditions: male, Sprague Dawley, rat, microsomes, pH 7.4
[10] = read-out: p53 activation EC50, RLM
[11] = HCT-116, read-out: p53 activation EC50, RLM
[12] = HCT-116, read-out: p53 activation EC50, HLM
[13] = HCT-116, read-out: p53 activation efficacy, primary screening

SMILES | Viability EC50 (p53RE-bla HCT-116 cells) | Viability efficacy (p53RE-bla HCT-116 cells) | efficacy [1] | EC50 ([1]; read-out: EC50) [µM] | EC50 [2] | EC50 [3] [µM] | activity outcome in p53-bla assay [3] | p53 activation efficacy [3] | p53 activation EC50 [4] | p53 activation efficacy [4] | p53 activation EC50 [5] | Microsome stability Half-life without cells [6] [min] | Viability EC50, HLM (p53RE-bla HCT-116 cells) | Viability EC50, No MS (p53RE-bla HCT-116 cells) | EC50 ([1]; Homo sapiens, HCT-116) [µM] | EC50 ([2]; Homo sapiens, HCT-116, 0.5 h) [µM] | EC50 ([7]; HCT-116) [µM] | Emax ([7]; HCT-116, read-out: efficacy) [%] | Depletion after 16 h of incubation with cells [8] [%] | half-life (in vitro) [min] | also measured
COP(=S)(NC(C)C)Oc1ccc(C)cc1[N+](=O)[O-] (centres unmarked) [Amiprofos-methyl] | inactive | inactive | 4.48 ± 0.3 ( 100.11 ± 8.75 ) % | 4.48 | Inactive | 4.69 | induce p53 signaling | 84.8532 and 75.0867 | inactive | inactive | inactive | 1.11 |  |  |  |  |  |  |  |  | 
COP(=S)(OC)Oc1ccc(S(=O)(=O)N(C)C)cc1 [Famphur] |  |  |  |  |  |  |  |  |  |  |  |  | inactive | inactive | 3.1 | 0.49 | 2.46 | 73.6 | 87.7 ± 3.02 | 10.8 ± 1.96 | Viability EC50, RLM (p53RE-bla HCT-116 cells): inactive; Viability Efficacy, HLM (p53RE-bla HCT-116 cells): inactive; Viability Efficacy, No MS (p53RE-bla HCT-116 cells): inactive; Viability Efficacy, RLM (p53RE-bla HCT-116 cells): inactive; EC50 [3, 10]: 3.1 µM; EC50 [7, 11]: 3.12 µM; EC50 [9, 12]: 2.02 µM; p53 activation EC50, No MS [4]: inactive; p53 activation Efficacy, No MS [4]: inactive; p53 activation EC50, HLM [5]: inactive
CCNP(=S)(OC)O/C(C)=C/C(=O)OC(C)C (centres unmarked) [Propetamphos] | inactive | inactive |  |  |  |  |  | 78.66 and 99.2667 | inactive | inactive | inactive |  |  |  | 2.59 | 2 | 3.05 | 88.6 | 91.32 ± 1.7 | > 120 | EC50 ([9]; HCT-116, read-out: p53 activation EC50): 0.731 µM; Emax ([9]; HCT-116, read-out: p53 activation efficacy): 39.9%
CCOP(=S)(OCC)SCSC(C)(C)C [Terbufos] |  |  |  |  | Inactive |  | induce p53 signaling |  |  |  |  |  |  |  | 1.12 |  | 2.81 | 62.7 | 98.65 ± 1.08 | 1.12 ± 0.2 | Viability EC50, cherry pick confirmation (p53RE-bla HCT-116 cells): inactive; Viability EC50, primary screening (p53RE-bla HCT-116 cells): inactive; Viability efficacy, cherry pick confirmation (p53RE-bla HCT-116 cells): inactive; Viability efficacy, primary screening (p53RE-bla HCT-116 cells): inactive; Emax ([1]; Homo sapiens, HCT-116, read-out: efficacy): 53.9%; EC50 ([7]; HCT-116, read-out: p53 activation EC50, cherry pick confirmation): 1.32 µM; Emax ([7]; HCT-116, read-out: p53 activation efficacy, cherry pick confirmation): 54.3%; Emax [7, 13]: 37.5%; Emax [9, 13]: 37.6%; p53 activation EC50, cherry pick confirmation [4]: inactive; p53 activation EC50, primary screening [4]: inactive; p53 activation efficacy, cherry pick confirmation [4]: inactive; p53 activation efficacy, primary screening [4]: inactive; p53 activation EC50, cherry pick confirmation [5]: inactive; p53 activation efficacy, cherry pick confirmation [5]: inactive
CCOC(=O)c1cn2nc(OP(=S)(OCC)OCC)cc2nc1C [Pyrazophos] |  |  |  |  |  |  |  |  |  |  |  |  | inactive | inactive | 0.79 | 41 | 0.7 | 32.7 | 88.65 ± 0.14 | 2.29 ± 0.71 | Viability EC50, RLM (p53RE-bla HCT-116 cells): inactive; Viability Efficacy, HLM (p53RE-bla HCT-116 cells): inactive; Viability Efficacy, No MS (p53RE-bla HCT-116 cells): inactive; Viability Efficacy, RLM (p53RE-bla HCT-116 cells): inactive; EC50 [3, 10]: 0.877 µM; EC50 [7, 11]: 0.765 µM; EC50 [9, 12]: 3.67 µM; p53 activation EC50, No MS [4]: inactive; p53 activation Efficacy, No MS [4]: inactive; p53 activation EC50, HLM [5]: inactive
Cc1cc(=O)oc2cc(O)ccc12.O [4-Methylumbelliferone hydrate] |  |  | 25.18 ± 1.7 ( 100.84 ± 7.34 ) % | 25.2 | Inactive | 23.3 |  |  |  |  |  | 26.74 ± 0.98 |  |  |  |  |  |  |  |  | EC50, viability, cherry pick confirmation (p53RE-bla HCT-116 cells): inactive; EC50, viability, primary screening (p53RE-bla HCT-116 cells): inactive; Efficacy, viability, cherry pick confirmation (p53RE-bla HCT-116 cells): inactive; Efficacy, viability, primary screening (p53RE-bla HCT-116 cells): inactive; EC50 ([3]; read-out: EC50, p53 activation, cherry pick confirmation): 25.7 µM; EC50 ([3]; read-out: EC50, p53 activation, primary screening): 33.4 µM; EC50, p53 activation, cherry pick confirmation [4]: inactive; EC50, p53 activation, primary screening [4]: inactive; Efficacy, p53 activation, cherry pick confirmation [4]: inactive; Efficacy, p53 activation, primary screening [4]: inactive; EC50, p53 activation, cherry pick confirmation [5]: inactive; EC50, p53 activation, primary screening [5]: inactive
